From ChEMBL document CHEMBL1145498, “A systematic interaction map of validated kinase inhibitors with Ser/Thr kinases” (Proc Natl Acad Sci U S A, 2007)

How the values were obtained:
[1] = biological target: Serine/threonine-protein kinase Chk2 (Homo sapiens, UniProt O96017)
[2] = biological target: T1, Myotonin-protein kinase (Homo sapiens) (UniProt Q09013)
T1 sequence (whole entry): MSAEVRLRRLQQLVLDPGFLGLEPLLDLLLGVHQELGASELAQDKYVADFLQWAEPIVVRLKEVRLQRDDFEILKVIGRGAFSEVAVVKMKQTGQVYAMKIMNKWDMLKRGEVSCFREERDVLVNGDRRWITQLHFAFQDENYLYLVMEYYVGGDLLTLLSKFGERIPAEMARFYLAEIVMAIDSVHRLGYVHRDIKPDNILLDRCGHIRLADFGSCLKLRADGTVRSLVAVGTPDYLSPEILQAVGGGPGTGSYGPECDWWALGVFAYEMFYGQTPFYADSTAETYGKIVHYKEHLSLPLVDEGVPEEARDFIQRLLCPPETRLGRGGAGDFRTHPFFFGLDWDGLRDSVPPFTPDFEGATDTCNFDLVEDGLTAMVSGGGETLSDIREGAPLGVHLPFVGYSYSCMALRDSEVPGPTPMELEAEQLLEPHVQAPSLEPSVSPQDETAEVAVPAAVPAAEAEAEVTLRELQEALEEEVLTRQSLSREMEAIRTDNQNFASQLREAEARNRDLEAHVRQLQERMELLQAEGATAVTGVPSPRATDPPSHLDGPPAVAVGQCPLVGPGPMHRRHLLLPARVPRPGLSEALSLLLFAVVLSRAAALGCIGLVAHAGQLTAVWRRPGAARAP

[3] = biological target: Serine/threonine-protein kinase PAK 5 (Homo sapiens) (UniProt Q9P286)
[4] = biological target: Mitogen-activated protein kinase 3 (Homo sapiens, UniProt P27361)
[5] = biological target: Calcium/calmodulin-dependent protein kinase type II subunit beta (Homo sapiens) (UniProt Q13554)
[6] = biological target: Serine/threonine-protein kinase 38 (Homo sapiens) (UniProt Q15208)
[7] = biological target: T2, Dual specificity mitogen-activated protein kinase kinase 6 (Homo sapiens) (UniProt P52564)
T2 sequence (whole entry): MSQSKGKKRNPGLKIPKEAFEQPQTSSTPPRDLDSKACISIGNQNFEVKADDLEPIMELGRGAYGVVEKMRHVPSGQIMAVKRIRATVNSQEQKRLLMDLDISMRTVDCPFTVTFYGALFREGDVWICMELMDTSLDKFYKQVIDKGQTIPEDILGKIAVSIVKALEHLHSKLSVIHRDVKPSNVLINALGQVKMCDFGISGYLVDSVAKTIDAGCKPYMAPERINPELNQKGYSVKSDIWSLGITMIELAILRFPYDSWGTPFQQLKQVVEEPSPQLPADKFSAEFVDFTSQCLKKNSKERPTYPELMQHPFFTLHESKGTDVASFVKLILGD

[8] = biological target: cAMP-dependent protein kinase catalytic subunit alpha (Homo sapiens) (UniProt P17612)
[9] = biological target: Calcium/calmodulin-dependent protein kinase kinase 2 (Homo sapiens, UniProt Q96RR4)
[10] = biological target: Serine/threonine-protein kinase 26 (Homo sapiens) (UniProt Q9P289)
[11] = biological target: Serine/threonine-protein kinase RIO2 (Homo sapiens) (UniProt Q9BVS4)
[12] = biological target: Serine/threonine-protein kinase Nek6 (Homo sapiens) (UniProt Q9HC98)
[13] = biological target: Dual specificity mitogen-activated protein kinase kinase 2 (Homo sapiens, UniProt P36507)
Chain of Dual specificity mitogen-activated protein kinase kinase 2 (P36507 whole entry): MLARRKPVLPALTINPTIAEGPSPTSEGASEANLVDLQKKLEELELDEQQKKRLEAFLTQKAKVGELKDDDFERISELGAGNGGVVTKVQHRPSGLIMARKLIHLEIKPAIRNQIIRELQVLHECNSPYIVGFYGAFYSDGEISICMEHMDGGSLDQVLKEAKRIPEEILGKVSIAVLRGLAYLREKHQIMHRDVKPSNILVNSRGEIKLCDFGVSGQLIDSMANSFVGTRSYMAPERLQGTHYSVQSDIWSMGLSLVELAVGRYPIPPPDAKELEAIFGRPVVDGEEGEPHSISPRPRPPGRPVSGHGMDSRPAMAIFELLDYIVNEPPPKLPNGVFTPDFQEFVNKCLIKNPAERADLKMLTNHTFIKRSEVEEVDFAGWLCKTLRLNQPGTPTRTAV

Chain of Calcium/calmodulin-dependent protein kinase type II subunit beta (Homo sapiens) (Q13554 whole entry): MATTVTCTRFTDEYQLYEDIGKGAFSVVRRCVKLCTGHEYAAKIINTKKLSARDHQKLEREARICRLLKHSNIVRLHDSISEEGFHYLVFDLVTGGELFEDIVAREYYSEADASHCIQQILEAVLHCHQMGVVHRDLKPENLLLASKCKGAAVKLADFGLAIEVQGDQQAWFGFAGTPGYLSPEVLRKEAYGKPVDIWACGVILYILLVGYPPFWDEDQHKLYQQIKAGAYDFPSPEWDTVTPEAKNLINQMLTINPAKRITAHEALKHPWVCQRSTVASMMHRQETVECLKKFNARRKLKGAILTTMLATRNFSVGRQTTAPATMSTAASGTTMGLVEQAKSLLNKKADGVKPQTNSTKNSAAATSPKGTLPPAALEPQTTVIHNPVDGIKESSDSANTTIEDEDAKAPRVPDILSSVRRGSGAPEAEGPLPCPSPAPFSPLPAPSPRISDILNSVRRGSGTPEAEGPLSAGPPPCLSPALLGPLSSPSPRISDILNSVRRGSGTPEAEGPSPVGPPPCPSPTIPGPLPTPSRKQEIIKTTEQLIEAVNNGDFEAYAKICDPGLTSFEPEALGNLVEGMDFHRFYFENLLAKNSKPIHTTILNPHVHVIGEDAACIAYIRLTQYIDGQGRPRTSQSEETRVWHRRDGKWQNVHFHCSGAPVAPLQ
Chain of Serine/threonine-protein kinase Nek6 (Homo sapiens) (Q9HC98 whole entry): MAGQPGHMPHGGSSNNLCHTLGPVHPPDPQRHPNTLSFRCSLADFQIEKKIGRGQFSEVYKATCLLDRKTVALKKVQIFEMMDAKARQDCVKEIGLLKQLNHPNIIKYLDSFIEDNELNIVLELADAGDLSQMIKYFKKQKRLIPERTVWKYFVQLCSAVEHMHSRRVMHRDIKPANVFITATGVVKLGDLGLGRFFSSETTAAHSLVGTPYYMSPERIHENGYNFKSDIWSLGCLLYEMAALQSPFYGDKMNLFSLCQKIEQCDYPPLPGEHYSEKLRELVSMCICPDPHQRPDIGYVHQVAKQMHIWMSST
Chain of Serine/threonine-protein kinase 26 (Homo sapiens) (Q9P289 2-416 limits assumed): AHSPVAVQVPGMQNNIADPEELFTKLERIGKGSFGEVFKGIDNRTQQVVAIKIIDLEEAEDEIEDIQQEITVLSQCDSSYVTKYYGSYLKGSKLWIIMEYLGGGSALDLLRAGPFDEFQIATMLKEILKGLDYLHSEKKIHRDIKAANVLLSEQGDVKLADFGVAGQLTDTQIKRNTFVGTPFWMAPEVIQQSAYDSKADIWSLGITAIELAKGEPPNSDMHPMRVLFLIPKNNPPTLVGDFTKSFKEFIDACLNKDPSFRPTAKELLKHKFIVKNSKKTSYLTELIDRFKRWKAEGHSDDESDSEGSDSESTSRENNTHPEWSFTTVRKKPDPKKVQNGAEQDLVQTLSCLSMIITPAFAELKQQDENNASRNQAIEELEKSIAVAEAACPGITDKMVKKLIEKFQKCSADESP
Chain of Serine/threonine-protein kinase 38 (Homo sapiens) (Q15208 2-465 limits assumed): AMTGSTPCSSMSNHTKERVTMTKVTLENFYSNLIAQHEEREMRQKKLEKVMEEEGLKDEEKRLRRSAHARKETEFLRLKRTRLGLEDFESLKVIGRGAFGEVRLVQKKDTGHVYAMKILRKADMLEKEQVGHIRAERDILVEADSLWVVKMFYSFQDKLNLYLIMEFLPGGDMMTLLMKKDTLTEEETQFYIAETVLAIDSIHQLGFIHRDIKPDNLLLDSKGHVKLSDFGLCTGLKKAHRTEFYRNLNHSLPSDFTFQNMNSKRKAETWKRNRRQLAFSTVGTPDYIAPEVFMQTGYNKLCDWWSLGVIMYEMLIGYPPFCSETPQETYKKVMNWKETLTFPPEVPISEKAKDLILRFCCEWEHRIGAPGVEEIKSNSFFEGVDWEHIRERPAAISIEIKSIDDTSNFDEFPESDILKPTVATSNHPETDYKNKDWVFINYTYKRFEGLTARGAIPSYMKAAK
Chain of Serine/threonine-protein kinase Chk2 (O96017 whole entry): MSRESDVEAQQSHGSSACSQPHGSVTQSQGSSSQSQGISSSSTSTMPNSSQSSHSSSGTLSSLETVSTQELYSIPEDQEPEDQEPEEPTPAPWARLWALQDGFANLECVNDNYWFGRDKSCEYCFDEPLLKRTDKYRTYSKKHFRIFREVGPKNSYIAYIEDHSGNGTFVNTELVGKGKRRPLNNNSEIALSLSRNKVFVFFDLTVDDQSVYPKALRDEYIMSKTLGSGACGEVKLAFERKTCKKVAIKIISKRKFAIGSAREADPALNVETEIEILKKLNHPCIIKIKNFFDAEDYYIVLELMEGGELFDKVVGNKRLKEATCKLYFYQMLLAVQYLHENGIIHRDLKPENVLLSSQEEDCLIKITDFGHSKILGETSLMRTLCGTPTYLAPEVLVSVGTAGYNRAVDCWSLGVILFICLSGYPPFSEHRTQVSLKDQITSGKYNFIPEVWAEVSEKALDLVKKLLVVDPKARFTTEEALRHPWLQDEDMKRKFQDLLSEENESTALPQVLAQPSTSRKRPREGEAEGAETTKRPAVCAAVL
Chain of Mitogen-activated protein kinase 3 (P27361 whole entry): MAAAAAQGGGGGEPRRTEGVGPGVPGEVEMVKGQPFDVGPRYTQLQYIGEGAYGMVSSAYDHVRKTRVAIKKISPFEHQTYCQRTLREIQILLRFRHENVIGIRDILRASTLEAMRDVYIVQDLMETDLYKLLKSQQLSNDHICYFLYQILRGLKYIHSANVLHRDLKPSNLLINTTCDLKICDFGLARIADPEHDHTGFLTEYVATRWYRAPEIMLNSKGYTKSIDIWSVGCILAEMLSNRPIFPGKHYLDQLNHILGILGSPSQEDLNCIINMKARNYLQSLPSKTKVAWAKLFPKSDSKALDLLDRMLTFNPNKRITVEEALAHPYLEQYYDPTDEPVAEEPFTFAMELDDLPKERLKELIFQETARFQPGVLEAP
Chain of Serine/threonine-protein kinase RIO2 (Homo sapiens) (Q9BVS4 whole entry, looked up): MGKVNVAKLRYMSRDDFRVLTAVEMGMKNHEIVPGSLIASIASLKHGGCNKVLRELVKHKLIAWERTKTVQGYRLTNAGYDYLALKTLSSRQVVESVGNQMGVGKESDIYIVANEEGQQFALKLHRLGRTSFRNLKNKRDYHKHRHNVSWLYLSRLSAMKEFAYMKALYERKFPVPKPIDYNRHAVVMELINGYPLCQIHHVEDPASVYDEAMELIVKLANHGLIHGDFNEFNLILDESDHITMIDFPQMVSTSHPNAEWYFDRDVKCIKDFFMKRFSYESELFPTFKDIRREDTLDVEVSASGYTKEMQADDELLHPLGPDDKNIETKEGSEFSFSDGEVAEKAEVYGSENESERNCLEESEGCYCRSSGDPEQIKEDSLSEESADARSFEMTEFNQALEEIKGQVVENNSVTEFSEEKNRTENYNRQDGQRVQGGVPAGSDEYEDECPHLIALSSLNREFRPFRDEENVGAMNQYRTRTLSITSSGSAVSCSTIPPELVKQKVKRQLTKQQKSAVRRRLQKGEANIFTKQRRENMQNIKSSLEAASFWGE
Chain of Serine/threonine-protein kinase PAK 5 (Homo sapiens) (Q9P286 whole entry, looked up): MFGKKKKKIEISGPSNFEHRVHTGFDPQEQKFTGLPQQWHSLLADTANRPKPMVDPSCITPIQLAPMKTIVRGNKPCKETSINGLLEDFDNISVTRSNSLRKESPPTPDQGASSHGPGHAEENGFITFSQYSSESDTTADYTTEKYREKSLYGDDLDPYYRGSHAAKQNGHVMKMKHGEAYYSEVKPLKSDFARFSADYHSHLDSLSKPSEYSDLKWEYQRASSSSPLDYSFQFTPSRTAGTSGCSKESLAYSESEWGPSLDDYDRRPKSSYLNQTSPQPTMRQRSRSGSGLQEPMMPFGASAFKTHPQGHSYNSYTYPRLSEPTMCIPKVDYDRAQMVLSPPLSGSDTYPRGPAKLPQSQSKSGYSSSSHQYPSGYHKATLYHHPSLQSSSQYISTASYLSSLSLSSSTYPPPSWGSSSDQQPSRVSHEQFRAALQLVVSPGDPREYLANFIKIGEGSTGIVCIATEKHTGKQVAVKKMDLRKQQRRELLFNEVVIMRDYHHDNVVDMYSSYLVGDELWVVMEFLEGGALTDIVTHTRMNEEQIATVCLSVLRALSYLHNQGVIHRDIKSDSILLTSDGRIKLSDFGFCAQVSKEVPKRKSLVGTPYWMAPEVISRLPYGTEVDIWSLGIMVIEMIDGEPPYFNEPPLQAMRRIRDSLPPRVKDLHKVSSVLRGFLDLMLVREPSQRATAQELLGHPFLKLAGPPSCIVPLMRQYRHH

ΔTm [1]	ΔTm [2]	ΔTm [3]	ΔTm [4]	ΔTm [5]	ΔTm [6]	ΔTm [7]	ΔTm [8]	ΔTm [9]	ΔTm [10]	ΔTm [11]	ΔTm [12]	ΔTm [13]	SMILES
3.1 °C	3.6 °C	0.2 °C	-0.2 °C	0.3 °C	0.5 °C	0.1 °C	1.1 °C	0.7 °C	1.2 °C	2 °C	-0.4 °C	0.2 °C	COc1cc2ncnc(Nc3ccc(F)c(Cl)c3)c2cc1OCCCN1CCOCC1
1.6 °C	2.4 °C	0.2 °C	0.6 °C	1.2 °C	0.6 °C	0.9 °C	2.1 °C	1.3 °C	0.8 °C	0.6 °C	1 °C	0.3 °C	O=c1c(-c2ccc(O)cc2)coc2cc(O)cc(O)c12
0.1 °C	0.6 °C	0 °C	0.5 °C	-0.2 °C	0.3 °C	0.2 °C	0.7 °C	0.1 °C	2.1 °C	0.2 °C	-0.2 °C	0.1 °C	Nc1nccc(-c2c(-c3ccc(F)cc3)ncn2C2CCNCC2)n1
10.6 °C	3.7 °C	4.3 °C	1.2 °C	0.1 °C	3.6 °C	10.3 °C	0.9 °C	3.5 °C	-0.2 °C	5 °C	1.7 °C	1.1 °C	Cn1cc(/C=C2/C(=O)Nc3ccc(S(N)(=O)=O)cc32)c2ccccc21
1.8 °C	0.1 °C	0.2 °C	0.4 °C	-0.4 °C	0.1 °C	0.7 °C	1 °C	-1 °C	4.2 °C	3.4 °C	-0.2 °C	1.2 °C	Nc1cc2ncnc(Nc3cccc(Br)c3)c2cc1N
-1.1 °C	0.6 °C	-0.6 °C	0.6 °C	0.1 °C	0.7 °C	0.4 °C	0.8 °C	2.8 °C	-0.3 °C	1.2 °C	0.4 °C	0.3 °C	Cc1ccc(NC(=O)c2ccc(CN3CCN(C)CC3)cc2)cc1Nc1nccc(-c2cccnc2)n1
-0.8 °C	1.6 °C	0.1 °C	-0.2 °C	0.6 °C	2 °C	0 °C	-0.9 °C	-0.1 °C	1.1 °C	-0.1 °C	0.5 °C	0.1 °C	O=C(O)Cc1ccc(O)c([N+](=O)[O-])c1
7.9 °C	5.1 °C	2.7 °C	0.6 °C	0.1 °C	3.6 °C	5.3 °C	2.1 °C	6.3 °C	8.5 °C	4.7 °C	0.5 °C	3.1 °C	O=C1C=C2C(=Nc3c2c2c(c4c3=NC3=C4CCC=C3)C=NC=2)CC1
0.7 °C	-1.8 °C	0.3 °C	0.4 °C	0.4 °C	1.5 °C	0.5 °C	0.2 °C	2 °C	0.3 °C	0.9 °C	0 °C	1.4 °C	CN(C)c1ccc(CC2C(=O)Nc3ccccc32)cc1 (stereo not given)
5.2 °C	6 °C	1.8 °C	1.7 °C	1.8 °C	2.2 °C	3.5 °C	1.6 °C	3.7 °C	0.9 °C	7 °C	1.7 °C	3.8 °C	N#C/C(=C1/Nc2ccccc2S1)c1ccnc(NCCc2cccnc2)n1
7 °C	7.1 °C	1.9 °C	0.7 °C	2 °C	0.8 °C	0.9 °C	4.4 °C	0.1 °C	-0.6 °C	3.1 °C	-1 °C	0.9 °C	Cn1cc(C2=C(c3cn(CCCSC(=N)N)c4ccccc34)C(=O)NC2=O)c2ccccc21
2 °C	0.3 °C	0.3 °C	0.6 °C	0 °C	0.4 °C	0.4 °C	0.4 °C	1.4 °C	0.6 °C	1.2 °C	0.5 °C	0.3 °C	COc1cc2ncnc(Nc3cccc(Br)c3)c2cc1OC
0.1 °C	0.1 °C	-0.2 °C	0.3 °C	-0.2 °C	0.1 °C	0.1 °C	-0.2 °C	-0.1 °C	0 °C	0.2 °C	-0.2 °C	0 °C	COc1ccc(COc2ccc(Cc3cnc(N)nc3N)cc2OC)cc1
0.2 °C	-0.3 °C	0 °C	0.1 °C	-0.1 °C	0.2 °C	0 °C	1.1 °C	-0.6 °C	-0.3 °C	-0.6 °C	-0.2 °C	-0.5 °C	COC1=C2C[C@@H](C)C[C@H](OC)[C@H](O)[C@@H](C)/C=C(\C)[C@H](OC(N)=O)[C@@H](OC)/C=C\C=C(/C)C(=O)NC(=CC1=O)C2=O
0 °C	-0.5 °C	0 °C	0.2 °C	-0.2 °C	0.3 °C	1.6 °C	1 °C	-0.1 °C	-0.5 °C	0.1 °C	-0.1 °C	0.4 °C	CCOc1cc(/C=C(\C#N)C(N)=O)cc(CSc2ccccc2)c1O
0.6 °C	6.4 °C	0.6 °C	-0.2 °C	1 °C	0.3 °C	0.8 °C	2.2 °C	-0.8 °C	0.4 °C	0.7 °C	-0.9 °C	-0.1 °C	CN(C)CC1CCn2c(c(C3=C(c4c[nH]c5ccccc45)C(=O)NC3=O)c3ccccc32)C1 (stereo not given)
0.5 °C	0 °C	0.4 °C	0.4 °C	0.1 °C	0.3 °C	0 °C	0.3 °C	2 °C	0.1 °C	0.4 °C	0.4 °C	-0.3 °C	CC(C)n1cnc2c(NCc3ccccc3)nc(NCCCO)nc21
1.9 °C	1 °C	1.3 °C	2.1 °C	1.2 °C	2 °C	1.5 °C	-0.7 °C	6.9 °C	0 °C	2.5 °C	-2 °C	6.4 °C	O=C1Nc2ccc(I)cc2/C1=C1/Nc2ccccc2/C1=N\O
2.3 °C	0.3 °C	4.6 °C	0.7 °C	0.8 °C	2.6 °C	0.2 °C	0.5 °C	6.3 °C	4.1 °C	4.4 °C	-0.4 °C	3.1 °C	O=C1Nc2cc(Br)ccc2/C1=C1/Nc2ccccc2/C1=N\O
0.3 °C	0.5 °C	0.5 °C	-0.3 °C	1 °C	0.4 °C	0.1 °C	0.4 °C	-1.2 °C	0.5 °C	0.1 °C	0.1 °C	0 °C	O=c1sn(Cc2ccccc2)c(=S)n1Cc1ccccc1
